122 compounds from a melting point compilation (Tetko et al.) can be followed below.

Residues, ends and D or L forms follow the SMILES beside them. *: point of attachment. Boc = CC(C)(C)OC(=O)*

In general, melting point refers to the temperature of the solid-liquid transition. `COC(=O)c1c[nH]c(CC(C)C)n1` had a melting point of 136 to 138 °C.
With `Cn1c(-c2ccccc2)c(C(=O)O)c2ccccc21`, the melting point fell in the range of 192 to 194 °C.
`CC(C)(C)CC(=O)NN`: the melting point was 51 to 53 °C.
Compound `CNC(=O)COc1ccc(O)cc1` displayed a melting point of 125 to 127 °C.
With `Clc1cncc(-n2cncn2)n1`, the melting point is 109 to 111 °C.
`CCN(CC)S(=O)(=O)c1ccc(Cl)c(C(=O)O)c1` yielded a melting point of 121 to 125 °C.
`CSc1ncc[nH]1` came in with a melting point of 129 to 131 °C.
In turn, `Cc1ccc(S(N)(=O)=O)c(C(=O)O)c1` returned a melting point of 271 to 273 °C.
The compound `CCOC(=O)COc1ccc(C#N)cc1OC` displayed a melting point of 69 to 71 °C.
The result for `Cc1ccc(C)c(-n2ccnc2SCC(=O)O)c1` reads 128 to 130 °C.
For `COc1ccccc1NC(=O)NC1CCNCC1` the value was 83 to 85 °C.
On to `NS(=O)(=O)c1ccc(Cl)nc1Cl`, for which the melting point fell in the range of 189 to 191 °C.
Consider `Nc1nc2c(s1)COCC2`, for which the melting point fell in the range of 144 to 146 °C.
The result for `CC(=O)NCc1ccc(Br)cc1` reads 114 to 116 °C.
Turning to `O=C(O)CCCN1C(=O)c2cccc3cccc(c23)C1=O`, the melting point lay in the range of 86 to 88 °C.
As for `COc1cccc(NC(=O)CNc2ccccc2)c1`, the melting point fell in the range of 205 to 207 °C.
In the case of `NC(=NO)C1CCCC1`, the melting point was in the range of 74 to 76 °C.
In turn, `CCS(=O)(=O)c1cccc(C(=O)O)c1` yielded a melting point of 160 to 162 °C.
`O=[N+]([O-])c1ccc(-c2nnc(O)o2)cc1` showed a melting point of 249 to 251 °C.
In the case of `NC(=O)c1ccoc1`, the melting point lay within 174 to 176 °C.
As to `ClCc1nc(-c2ccoc2)no1`, the melting point fell in the range of 50 to 52 °C.
In turn, `Cc1nc(N)sc1Cc1ccc(F)cc1` displayed a melting point of 94 to 96 °C.
For `O=[N+]([O-])c1ccc2oc(CCl)nc2c1` the value was 115 to 117 °C; for `NNC(=O)c1c(Cl)cccc1Cl`, 180 to 182 °C; for `O=C1NCC(=O)N2CCOCC12` (configuration not stated), 170 to 172 °C.
Compound `O=C(O)CCOc1ccc(Br)cc1` had a melting point of 145 to 147 °C.
With `CN(C)c1cc(C#N)c2ccccc2n1`, the melting point lay in the range of 119 to 121 °C.
The result for `Cc1nncn1C1CC1` reads 49 to 51 °C; that for `CS(=O)(=O)c1ccc(N)cn1`, 171 to 173 °C.
The result for `COC(=O)c1cccc(S(=O)(=O)Cl)c1` reads 51 to 53 °C; that for `O=C(CCCl)NCCc1ccccc1`, 56 to 58 °C; that for `C=CC(=O)Nc1ccc(Br)cc1`, 197 to 199 °C.
`CN(C(=O)CC#N)c1ccccc1` gave a melting point of 86 to 88 °C.
For `Nc1nc(-c2ccc(S(=O)(=O)N3CCCCCC3)cc2)cs1` the value was 242 to 244 °C; for `NC(=O)c1c[nH]c(C2CC2)n1`, 216 to 218 °C; for `COc1ccc(NCc2cccs2)cc1`, 71 to 73 °C.
Compound `Cc1cc(C(=O)CCl)c(C)n1-c1ccc(OC(F)(F)F)cc1` had a melting point of 76 to 80 °C.
As to `Cc1cc(C(=O)CCl)c(C)n1-c1cccc(Br)c1`, the melting point fell in the range of 102 to 104 °C.
For `COC(=O)c1sc(Cl)nc1Cl`, the melting point was 54 to 56 °C.
Take `CC(C)Oc1ccc(C(=O)O)cc1N`: the melting point is 115 to 117 °C.
Regarding `CCn1c(C2CCN(C(=O)OC(C)(C)C)CC2)n[nH]c1=O`, the melting point was in the range of 219 to 221 °C.
`CS(=O)(=O)N1CCC(C(=O)O)CC1` registered a melting point of 159 to 161 °C.
In the case of `COc1ccc(-c2nn(Cc3ccccc3)cc2C(=O)O)cc1OC`, the melting point lay within 110 to 114 °C.
The compound `N#Cc1ccc(Oc2cccc(N)c2)nc1` had a melting point of 112 to 114 °C.
`O=C(NC1CC1)c1ccc(Br)cc1` gave a melting point of 151 to 153 °C.
On to `Cn1c(-c2cccc(O)c2)nc2ccccc21`, for which the melting point lay within 174 to 176 °C.
In turn, `COc1ccc(NC(=O)COc2ccccc2C(=O)O)cc1Cl` had a melting point of 229 to 231 °C.
The result for `CC1(C)NC(=O)N(Cc2ccc(C#N)cc2)C1=O` reads 167 to 169 °C.
`O=C(O)/C=C/c1nc2ccccc2o1`: the melting point was in the range of 223 to 225 °C.
For `N=C(N)NCCC(=O)O` the value was 220 to 224 °C; for `Nc1cc(F)c(Oc2ccc(F)cc2)cc1C(=O)O`, 194 to 196 °C.
`Cc1ccc(C)n1-c1ccc(Br)cc1` registered a melting point of 61 to 63 °C.
The result for `CC1(C)CCC(=CC(=O)O)CC1` reads 88 to 90 °C; that for `NC(=O)Cn1ncc(Cl)c(Cl)c1=O`, 245 to 247 °C; that for `Ic1ccc(OCCc2ccccc2)cc1`, 64 to 66 °C.
For `O=Cc1cc(Cl)c2c(c1)OCCO2` the value was 79 to 83 °C.
`CN1CC(=O)N(CCCC(=O)O)C1=O` came in with a melting point of 79 to 81 °C.
In the case of `CNC1CCN(C2CCOCC2)CC1`, the melting point fell in the range of 32 to 34 °C.
The result for `CC(C)(C)OC(=O)NCC(=O)NCC(=O)O` (Boc-Gly-Gly-OH) reads 119 to 121 °C; that for `CC12CSCC(=O)N1C(C(=O)O)CS2` (configuration not stated), 202 to 204 °C.
The result for `Cc1cc(NN)nc2c(C)cccc12` reads 168 to 170 °C; that for `Sc1nnnn1C1CC1`, 127 to 129 °C; that for `O=C(CBr)c1ccc2c(c1)Cc1ccccc1-2`, 141 to 143 °C.
The result for `O=C(CCl)NC(Cc1c[nH]c2ccccc12)C(=O)O` (configuration not stated) reads 153 to 155 °C; that for `COc1ccc(Br)c(C(N)=S)c1`, 142 to 144 °C.
On to `OCc1nc2cc(C(F)(F)F)ccc2s1`, for which the melting point is 96 to 98 °C.
The compound `NC(=O)c1c[nH]cn1` returned a melting point of 194 to 196 °C.
For the compound `OCc1ccncc1Cl`, the melting point was in the range of 118 to 120 °C.
`Nc1ccc(C(=O)N2CCOCC2)c(Cl)c1` had a melting point of 205 to 207 °C.
`O=C(O)CNC(=O)c1ccccn1` registered a melting point of 167 to 169 °C.
`O=C(O)C(=O)c1ccc(Cl)cc1` had a melting point of 87 to 89 °C.
Compound `CCNC(=O)Nc1cccc(N)c1` gave a melting point of 122 to 124 °C.
Compound `CN1N=C(c2ccncc2)CC1=O` came in with a melting point of 209 to 211 °C.
`COC(=O)CCCOc1ccc(N)c2ccccc12` returned a melting point of 69 to 71 °C.
Turning to `COc1cc(C(=O)N2CCCC(C(=O)O)C2)cc(OC)c1OC` (configuration not stated), the melting point is 189 to 191 °C.
Turning to `COc1ccccc1-n1cc(S(N)(=O)=O)cn1`, the melting point was 143 to 145 °C.
Turning to `Cc1cc(=O)n2nc(N)[nH]c2n1`, the melting point lay within 367 to 369 °C.
The result for `COc1ccccc1C1C(C(=O)O)CCC(=O)N1c1ccc(C)cc1` (configuration not stated) reads 205 to 208 °C; that for `COc1cc(-c2nnc(S)o2)cc(OC)c1OC`, 97 to 99 °C.
In the case of `O=C(O)CC1=NN(c2ncc(C(F)(F)F)cc2Cl)C(=O)C1`, the melting point fell in the range of 173 to 175 °C.
For `Cc1cc([N+](=O)[O-])ccc1OCCO` the value was 93 to 95 °C; for `CCOC(=O)c1ccn(C)c(=O)c1`, 91 to 93 °C.
The result for `O=C(CBr)c1ccc(N2CCCC2=O)cc1` reads 130 to 132 °C.
For `O=C(O)c1c[nH]c2ccc(I)cc2c1=O` the value was 286 to 288 °C; for `CC(N)(CO)C1CCCCC1` (configuration not stated), 80 to 82 °C.
For the compound `CC1(C)NCCNC1=O`, the melting point fell in the range of 113 to 115 °C.
On to `COc1ccc(Nc2nc3cc(S(=O)(=O)N4CCOCC4)ccc3o2)cc1`, for which the melting point fell in the range of 219 to 221 °C.
The result for `Cc1c(-c2cccnc2)noc1N` reads 177 to 179 °C.
For `Nc1ccnc(OCCO)c1` the value was 99 to 101 °C.
`COc1cn(-c2ccccc2)nc1C(=O)O`: the melting point lay in the range of 144 to 148 °C.
With `N#CC(Cl)(Cl)c1nc2ccccc2s1`, the melting point lay in the range of 66 to 68 °C.
For `Cc1cc(C)n(-c2ccc(C(N)=NO)cn2)n1` the value was 139 to 141 °C; for `Nc1cc(N2CCOC2=O)ccc1F`, 119 to 121 °C.
For the compound `O=c1cc(CCl)c2c(ccc3ccccc32)o1`, the melting point fell in the range of 119 to 120 °C.
Take `Cc1ccc(S(=O)(=O)OC2CCCC2c2ccccc2)cc1` (configuration not stated): the melting point fell in the range of 65 to 67 °C.
In turn, `Sc1ncc(-c2ccc(Br)cc2)[nH]1` gave a melting point of 210 to 212 °C.
In turn, `O=C(O)c1cc(F)ccc1N1CCOCC1` displayed a melting point of 158 to 160 °C.
The compound `O=[N+]([O-])c1ccc(C2CN=C(Nc3ccccc3)S2)cc1` (configuration not stated) yielded a melting point of 136 to 138 °C.
As for `CC(C)(C)CNc1cccnc1`, the melting point lay in the range of 62 to 64 °C.
Take `Cn1ccnc1-c1cc(Cl)ccn1`: the melting point was 77 to 79 °C.
On to `CC1(c2cccnc2)NC(=O)NC1=O` (configuration not stated), for which the melting point lay within 144 to 146 °C.
For `O=C(O)c1cn(-c2cccc(C(F)(F)F)c2)nn1`, the melting point is 149 to 151 °C.
As to `COc1ccc(-c2nc3c(s2)C(=O)CCC3)cc1`, the melting point was 112 to 114 °C.
`O=C(O)C(OC1CCOCC1)c1ccccc1` (configuration not stated) displayed a melting point of 87 to 89 °C.
In turn, `O=C(Nc1cnccn1)C1CCCNC1` (configuration not stated) gave a melting point of 141 to 143 °C.
`O=C(O)C1CCC(n2cccc2)CC1` (configuration not stated) yielded a melting point of 143 to 145 °C.
Regarding `Oc1ccc(CNC2CCCCC2)cc1`, the melting point was 105 to 107 °C.
Turning to `Cn1c(CCl)nc2ccccc2c1=O`, the melting point was in the range of 179 to 181 °C.
Consider `NC(C(=O)O)(c1cccc(F)c1)C(F)(F)F` (configuration not stated), for which the melting point lay in the range of 131 to 133 °C.
As to `CC(=O)Oc1cccc2ccc(O)nc12`, the melting point is 251 to 253 °C.
Compound `O=C(CCC1CCCO1)NC1CCC(C(=O)O)CC1` (configuration not stated) displayed a melting point of 199 to 201 °C.
Take `Nc1ncnc2sc3c(c12)CCCC3`: the melting point was in the range of 239 to 241 °C.
Take `Clc1cn[nH]c1`: the melting point is 65 to 67 °C.
`Cc1ccc(C)c(NC(=O)CCl)c1` came in with a melting point of 161 to 163 °C.
In the case of `O=C(O)c1ccccc1-n1ncc(Cl)c(Cl)c1=O`, the melting point fell in the range of 155 to 156 °C.
`CN(CC(=O)O)S(=O)(=O)c1cccnc1` displayed a melting point of 175 to 177 °C.
The result for `COc1cccc2c1CCCC(=O)N2` reads 159 to 161 °C; that for `CN1C(=O)CCC(C(=O)O)C1c1ccc(C(F)(F)F)cc1` (configuration not stated), 188 to 190 °C.
For `COc1ccc(Oc2c(F)cc(CCl)cc2F)cc1` the value was 62 to 64 °C.
The compound `Cc1cccc(-n2nc(-c3ccco3)cc2N)c1` registered a melting point of 82 to 84 °C.
The result for `Cc1ccc(SCC(=O)Nc2ccccc2C)c(N)c1` reads 115 to 117 °C; that for `O=C1NC(=O)N(c2ccccc2)C1=O`, 213 to 215 °C.
